Test results: patent US9288990B2, “Synergistic weed control from applications of penoxsulam and pethoxamid” (Dow AgroSciences, LLC, priority 2013, dated 2016)

How the values were obtained:
Format in all cases: in vivo
[1] = system: Ambrosia artemisiifolia L. (common ragweed, AMBEL); assay: Pre-emergence field trial, weed control of AMBEL
Experimental: (§1) Field trials were conducted with applications made in the area of naturally occurring weed populations in Germany, France, Hungary and Italy. The soil was treated prior to the emergence of target plants. All treatments were applied using a randomized complete block trial design, plots 3 meters (m) wide by 8-10 m long, with 3 replications per treatment.
(§2) Treatments consisted of penoxsulam and pethoxamid, applied alone and in combination. Spray solutions were prepared using an appropriate amount of dilution to treat the area of the plots based on use rates and water volumes necessary based on a per hectacre basis. Spray solutions were prepared and applied with the specified active ingredients in single and two-way combinations to be able to perform Colby synergy calculations. Formulated products were applied to the soil with a backpack or bicycle compressed air sprayer equipped with flat fas nozzles calibrated to deliver from 200 to 300 L/ha at a normal spray height above the solid, at spray pressures ranging from 210 to 350 kilopascals (kPa).
(§3) The treated plots and control plots were rated blind at various intervals after application. Ratings were based on a scale of 0-100%, as discussed above, wherein 0% indicates no control of the undesired vegetation and 100% indicates complete control of the undesired vegetation.
(§4) Colby's equation was used to determine the herbicidal effects expected from the mixtures, as described above. The results were measured at the evaluation intervals provided in Table 1 after the first application of the compositions. […] The herbicide tank mix combinations tested, application rates and ratios employed, plant species tested, and results are given below.

[2] = system: Chenopodium album L. (common lambsquarters, CHEAL); assay: Pre-emergence field trial, weed control of CHEAL
Experimental: as §1, §2, §3, §4

[3] = system: Xanthium strumarium L. (common cocklebur, XANST); assay: Pre-emergence field trial, weed control of XANST
Experimental: as §1, §2, §3, §4

[4] = system: Polygonum persicaria L. (ladysthumb, POLPE); assay: Pre-emergence field trial, weed control of POLPE; conditions: 54 days
Experimental: as §1, §2
(§5) The treated plots and control plots were rated blind at various intervals after application. […]
(§6) Colby's equation was used to determine the herbicidal effects expected from the mixtures, as described above. The results were measured at the evaluation intervals provided in Table 1 after the first application of the compositions. […]

[5] = system: Mercurialis annua (annual mercury, MERAN); assay: Pre-emergence field trial, weed control of MERAN; conditions: 29 days
Experimental: as §1, §2, §5, §6

[6] = system: Kickxia elantine (canker root, KICEL); assay: Pre-emergence field trial, weed control of KICEL
Experimental: as §1, §2, §5, §6

[7] = system: Echinochloa crus-galli (L.) P. Beauv. (barnyardgrass, ECHCG); assay: Pre-emergence field trial, weed control of ECHCG
Experimental: as §1, §2, §3, §4

[8] = 14 days, penoxsulam 5 g ai/ha alone
[9] = 28 days, penoxsulam 5 g ai/ha alone
[10] = 28 days, penoxsulam 10 g ai/ha alone
[11] = 58 days, penoxsulam 5 g ai/ha alone
[12] = 58 days, penoxsulam 10 g ai/ha alone
[13] = 14 days, pethoxamid 1200 g ai/ha alone
[14] = 28 days, pethoxamid 1200 g ai/ha alone
[15] = 58 days, pethoxamid 1200 g ai/ha alone

Which “Mean % weed control” value [1, 8] does the source give for `COc1cnc(OC)n2nc(NS(=O)(=O)c3c(OCC(F)F)cccc3C(F)(F)F)nc12` [Penoxsulam] here?
Its value is 50%.

What about the “Mean % weed control” value ([1]; 14 days, penoxsulam 10 g ai/ha alone) of the same compound?
Its value is 78.33%.

And the “Mean % weed control” value [1, 9]?
Its value is 33.33%.

What about the “Mean % weed control” value [1, 10] of the same compound?
The value was 66.67%.

And the “Mean % weed control” value [1, 11]?
The value was 33.33%.

What about the “Mean % weed control” value [1, 12] of the same compound?
The value was 66.67%.

And the “Mean % weed control” value [2, 8]?
Its value is 26.67%.

What about the “Mean % weed control” value [2, 9] of the same compound?
The value was 13.33%.

And the “Mean % weed control” value ([2]; 29 days, penoxsulam 5 g ai/ha alone)?
Its value is 95%.

And the “Mean % weed control” value ([2]; 46 days, penoxsulam 5 g ai/ha alone)?
The value was 43.33%.

And the “Mean % weed control” value [3, 9]?
The value was 20%.

And the “Mean % weed control” value [3, 11]?
Its value is 10%.

What about the “Mean % weed control” value ([4]; penoxsulam 5 g ai/ha alone) of the same compound?
The value was 90%.

What about the “Mean % weed control” value ([5]; penoxsulam 10 g ai/ha alone) of the same compound?
Its value is 36.67%.

What about the “Mean % weed control” value ([6]; 696 h) of the same compound?
Its value is 20%.

What about the “Mean % weed control” value [7, 10] of the same compound?
Its value is 76.67%.

What about the “Mean % weed control” value [7, 11] of the same compound?
The value was 20%.

What about the “Mean % weed control” value [7, 12] of the same compound?
The value was 63.33%.

Which “Mean % weed control” value [1, 13] does the source give for `CCOCCN(C(=O)CCl)C(=C(C)C)c1ccccc1` [Pethoxamid, 2-chloro-N-(ethoxyethyl)-N-(2-methyl-1-phenylprop-1-enyl)acetamide] here?
Its value is 33.33%.

What about the “Mean % weed control” value [1, 14] of the same compound?
The value was 13.33%.

What about the “Mean % weed control” value [1, 15] of the same compound?
The value was 13.33%.

What about the “Mean % weed control” value [2, 13] of the same compound?
The value was 26.67%.

And the “Mean % weed control” value [2, 14]?
Its value is 6.67%.

And the “Mean % weed control” value ([2]; 29 days, pethoxamid 1200 g ai/ha alone)?
The value was 0%.

And the “Mean % weed control” value ([2]; 46 days, pethoxamid 1200 g ai/ha alone)?
The value was 16.67%.

And the “Mean % weed control” value [3, 14]?
The value was 3.33%.

And the “Mean % weed control” value [3, 15]?
The value was 0%.

What about the “Mean % weed control” value ([4]; pethoxamid 1200 g ai/ha alone) of the same compound?
Its value is 72.33%.

And the “Mean % weed control” value ([5]; pethoxamid 1200 g ai/ha alone)?
The value was 0%.

What about the “Mean % weed control” value ([6]; KICEL, 29 days, pethoxamid 1200 g ai/ha alone) of the same compound?
The value was 0%.

What about the “Mean % weed control” value [7, 14] of the same compound?
The value was 33.33%.

And the “Mean % weed control” value [7, 15]?
Its value is 16.67%.
